Experimental data from publication PMC12867150, “A fungi-derived cyclic peptide enhances Th9-mediated antitumor immunity by targeting ZAP70 and SREBP1” (The Journal of Clinical Investigation, 2025).
Where “and” joins values, the source holds several entries; their conditions need not be identical. Equal values may be shown once.

Experiments:
[1] = system: Th9 signature genes (Irf4, Batf3, Batf, and Il9); assay: Quantitative RT-PCR of Th9 signature genes (Figure 1J); format: cell-based, mouse
Protocol: Total RNA was extracted from T cells using RNAex Pro Reagent (AG, catalog AG21102) following the manufacturer’s instructions. First-strand complementary DNA (cDNA) was synthesized using the Hifair III 1st Strand cDNA Synthesis SuperMix (YEASEN, catalog 11137ES10). Quantitative real-time PCR (qRT-PCR) was conducted on a QuantStudio 3 Real-Time PCR System (Thermo Fisher Scientific) using ChamQ Universal SYBR qPCR Master Mix (Vazyme, catalog Q711-02) and gene-specific primers (Tsingke Biotech).
For normalization, mouse samples were referenced to Gapdh or Actb, and human samples were normalized to GAPDH. Relative gene expression was calculated using the ΔΔCt method. Primer sequences are listed in Supplemental Table 5.

B16-OVA melanoma = assay: Adoptive transfer of OT-II Th9 cells, B16-OVA tumor growth in C57BL/6 mice (Figure 2A, 2H); format: in vivo; details: EpA-Th9 cells vs conventional Th9 cells; result in words
Description: (A) Schematic of the therapeutic model. C57BL/6 mice were subcutaneously inoculated with B16-OVA melanoma cells (5 × 10^5) and preconditioned with cyclophosphamide (CTX) on day 4. […] (B–G) Flow-cytometric analysis of transferred CD45.1^+ OT-II Th9 cells (B and C) and endogenous CD4^+ (D and E) and CD8^+ T cells (F and G) in spleens and tumors, showing frequencies and absolute numbers (n = 4 mice per group). (H) Tumor growth curves in B16-OVA–bearing C57BL/6 or β2-microglobulin–deficient (β2m-KO) mice following transfer of control or EpA-treated OT-II Th9 cells (n = 4 mice per group). (I) C57BL/6 mice bearing B16-OVA tumors were treated with control or EpA-induced OT-II Th9 cells (2 × 10^6, i.v., day 5), followed by anti–PD-1 antibody (200 μg, i.p.) on day 7, and (100 μg, i.p.) on day 10 and 12. Tumor growth is shown with individual trajectories (n = 6 mice per group). Statistical analysis was performed using 2-tailed unpaired Student’s t test ([…], B–G) or 1-way ANOVA with Tukey’s post hoc test (H and I). All data are presented as the mean ± SEM. *P < 0.05, **P < 0.01, ***P < 0.001. Schematic in A created using BioRender (https://Biorender.com).
C57BL/6 mice were subcutaneously injected with 5 × 10^5 B16-OVA melanoma cells. […]

human Th9 CAR T cells = assay: Granzyme B+ CAR Th9 cells from spleens after transfer (S9H-I); format: in vivo, mouse; details: for Proportion of GzmB⁺ cells in spleen: Supplemental Figure 9I
Protocol: For xenograft models, M-NSG mice were intravenously inoculated with 1 × 10^6 Raji-CD19 tumor cells. On day 5 after inoculation, 2 × 10^6 CD19-CAR Th9 cells were administered intravenously to evaluate in vivo therapeutic efficacy. Tumor progression and immune cell infiltration were subsequently monitored according to experimental endpoints.
Details regarding staining panels (human and mouse), reagents (including clones and catalog numbers), acquisition settings, compensation/controls, and analysis procedures are provided in Supplemental Methods. […]
Th9 CAR-T c e l l s (n = 3). (H and I) Flow-cytometric analysis of granzyme B⁺ CAR-
Th9 cells isolated from spleens after adoptive transfer, showing representative plots
(H) and quantification (I) (n = 5 mice per group). Statistical analysis was performed
using one-way ANOVA with Tukey’s post hoc test (A and B), or two-tailed unpaired
Student’s t-test (E–G, and I). Repeated data are presented as mean ± SEM. *p < 0.05,
(also on this page, place not known: TP cells ANOV A 30IL-9+ cells (%) Fato Fato Fato Fato A SSC GzmB CtrlEpA MFIofMitoTracker (×102) GF NormalizedATPlevel CtrlEpA 4MFI of Mito Tracker (×105) CtrlEpA0 GzmB+ cells (%) CD4 10 20 IL-9+ cells (%) Day60 10 20 30 Ctrl)

[2] = EpA-treated Th9, ΔΔCt, individual replicates, n = 3

anteiso-C15 Leu7 surfactin [EpA]
Batf3 relative mRNA expression [1, 2]: 1.532 and 2.109 and 2.3014 | Batf relative mRNA expression [1, 2]: 1.713 and 1.736 and 1.548 | Il9 relative mRNA expression [1, 2]: 23.4757 and 53.1262 and 48.3738 | Irf4 relative mRNA expression [1, 2]: 1.345 and 1.289 and 1.126 | Th9-associated transcription factors and effector cytokines ([1]; result in words): significantly upregulated | tumor control (B16-OVA melanoma): significantly improved tumor control | granzyme B levels in CAR T cells after transfer (human Th9 CAR T cells; result in words): elevated | Proportion of GzmB⁺ cells in spleen (human Th9 CAR T cells; replicate 1): 22.5 | Proportion of GzmB⁺ cells in spleen (human Th9 CAR T cells; replicate 2): 28.9 | Proportion of GzmB⁺ cells in spleen (human Th9 CAR T cells; replicate 3): 40.8 | Proportion of GzmB⁺ cells in spleen (human Th9 CAR T cells; replicate 4): 84.4 | Proportion of GzmB⁺ cells in spleen (human Th9 CAR T cells; replicate 5): 47.4 | granzyme B+ CAR Th9 gate number (human Th9 CAR T cells; spleens after transfer, representative flow plot, Figure S9H): 47.4
